Measurements reported in patent publication US20260325473A1, “N-Beta-Hydroxybutyryl-Amino Acids and Related Compositions and Methods” (The Board of Trustees of the Leland Stanford Junior …, priority 2023, published 2026).
Values belong to the molecule of their own block, whether it stands above or below them.

Tests used:
[1] = Metabolite quantitation in mouse plasma (QQQ-LC/MS); format: in vivo; conditions: 1 week ketogenic diet, 24 h fast, or ketone ester drink 3 g/kg
Procedure: (§1) Preparation of plasma samples for LC-MS analysis. Plasma was collected from mice via a submandibular bleed into lithium heparin tubes (BD, 365985) and immediately transferred onto ice. The blood was centrifuged at 4° C. at 5000 rpm for 5 min and the top layer of plasma was aliquoted and frozen at −80 °C. To extract polar metabolites from plasma for LC-MS analysis, 150 μl of a 2:1 mixture of acetonitrile/methanol was added to 50 μl of plasma. The mixture was centrifuged at 4° C. for 10 min at 15,000 rpm and the supernatant was transferred to a LC-MS vial.
(§2) Targeted metabolomics. Targeted measurements were performed using an Agilent 6470 triple quadrupole LC-MS instrument. MS analysis was performed using AJS in negative mode. The AJS source parameters were set as follows: the dry gas temperature was set at 250° C. with a gas flow of 12 l/min and the nebulizer pressure at 25 psi; the sheath gas temperature was set to 300° C. with the sheath gas flow set at 12 l/min; and the capillary voltage was set to 3,500 V. Separation of polar metabolites was performed as described above in the ‘Untargeted measurements of metabolites by LC-MS’ section. Multiple reaction monitoring was performed for the indicated metabolites with the listed dwell times, fragmentor voltage, collision energies, cell accelerator voltages and polarities. Quantification of the endogenous metabolite concentrations were performed by generating a standard curve with known concentrations of each metabolite. Metabolite standards were analyzed alongside the plasma samples using the same targeted triple quadrupole LC/MS method. A calibration standard curve generated from the metabolite standard concentrations and total peak areas were used to calculate the concentrations of each endogenous metabolite. The dilution of the plasma during the sample preparation was also taken into account for the quantification.

[2] = molecular target: T1, CNDP2 (Mus musculus, UniProt Q9D1A2); format: in vivo; conditions: ketone ester drink or one week of ketogenic diet
T1 sequence (Q9D1A2 1-475): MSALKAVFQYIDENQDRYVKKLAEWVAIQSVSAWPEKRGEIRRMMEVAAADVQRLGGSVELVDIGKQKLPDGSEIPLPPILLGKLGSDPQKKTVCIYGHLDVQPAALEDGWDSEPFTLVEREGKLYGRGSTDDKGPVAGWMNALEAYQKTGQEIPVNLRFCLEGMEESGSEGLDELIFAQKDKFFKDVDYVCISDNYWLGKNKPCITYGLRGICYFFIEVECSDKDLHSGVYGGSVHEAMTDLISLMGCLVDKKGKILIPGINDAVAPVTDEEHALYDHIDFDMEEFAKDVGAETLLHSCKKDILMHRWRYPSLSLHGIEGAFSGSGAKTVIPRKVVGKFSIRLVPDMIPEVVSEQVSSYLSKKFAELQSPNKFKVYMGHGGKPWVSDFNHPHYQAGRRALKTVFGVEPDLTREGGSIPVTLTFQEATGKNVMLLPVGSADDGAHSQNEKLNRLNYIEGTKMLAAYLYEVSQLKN
Procedure: as §1
(§3) Targeted metabolomics. Targeted measurements were performed using an Agilent 6470 triple quadrupole LC-MS instrument. MS analysis was performed using AJS in negative mode. […] Quantification of the endogenous metabolite concentrations were performed by generating a standard curve with known concentrations of each metabolite. Metabolite standards were analyzed alongside the plasma samples using the same targeted triple quadrupole LC/MS method. […] The dilution of the plasma during the sample preparation was also taken into account for the quantification. […]

[3] = Human ketone ester supplementation study, plasma metabolites; format: in vivo; conditions: 0.3 g/kg ketone ester, 60 min
Procedure: as §2
Human ketone ester supplementation study. Following screening, eligible subjects participated in a randomized, counter-balanced, double-blind, placebo-controlled crossover trial comparing BHB supplementation versus placebo, separated by a minimum of 2 days (ClinicalTrials.gov ID NCT04194450). Pre-menopausal women were tested in the follicular phase (days 3-9). Participants were asked to refrain from structured exercise and alcohol, limit physical activity, and follow a standardized diet (~50% carbohydrate, ~30% fat, ~20% protein) on the day before each trial. After refraining from medication use for 24 hours, participants reported to the Exercise, Metabolism and Inflammation Laboratory at the University of British Columbia-Okanagan in an overnight fasted state. Anthropometric measurements were obtained prior to insertion of an indwelling intravenous catheter into the antecubital vein for repeated blood sampling. Blood was collected into EDTA tubes (BD, 367863) and immediately centrifuged at 2000 rpm for 15 min and the top layer of plasma was aliquoted and frozen at −80 °C. After baseline (0) blood sample collection, the oral BHB supplement or placebo was consumed in liquid form (~30-65 mL). The BHB supplement (H.V.M.N®, USA) in the form of the ketone monoester (R)-3-hydroxybutyl (R)-3-hydroxybutyrate (AG®, TDeltaS, Oxford, UK) contained 0.4 g mL-1 BHB, natural flavoring, and <2% stevia leaf extract. The taste-matched placebo drink contained the same natural flavoring as the ketone supplement, stevia leaf extract, 5 mL of Bittrex stock (0.005 g of denatonium benzoate powder in 40 ml of water) and 1.5 mL of arrowroot stock (2 g of arrowroot powder in 50 ml of water) to match the bitter flavor and viscosity of the ketone monoester. Supplements were dispensed into opaque 80 ml bottles with volume calculated for 0.3 g BHB/kg body weight and labelled either A or B by a third-party researcher. Blinding was maintained until completion of data collection and analyses.

[4] = Keto-Med study, plasma metabolites; format: in vivo; conditions: human; 4 weeks WFKD vs baseline
Procedure: as §2
Keto-Med study. Keto-Med was a single-site, randomized, crossover, interventional trial comparing 2 metabolically distinct diets (well-formulated ketogenic diet, WFKD; and Mediterranean-plus diet, Med-Plus) among individuals with prediabetes and T2DM. Forty participants aged ≥18 years with prediabetes or T2DM followed the WFKD and the Med-Plus for 12 weeks each, in random order. Participants were randomly assigned into 1 of 2 different diet sequences: WFKD for 12 weeks (phase 1) and then the Med-Plus for 12 weeks (phase 2), or the opposite order. Ad libitum intake was advised, and participants were guided to follow 2 sets of dietary guidelines that shared 3 important similarities (incorporating nonstarchy vegetables and avoiding added sugars and refined grains) and 3 important differences (incorporating compared with avoiding legumes, fruits, and whole, intact grains). During the WFKD phase, participants were counseled to sustain nutritional ketosis by limiting carbohydrates to 20-50 g/day and keeping proteins to ~1.5 g/kg ideal body weight/day, with the remaining kcals coming from fats. Participants were also instructed to consume >3 servings/day of nonstarchy vegetables and maintain adequate mineral and fluid intake for the ketogenic state (sodium, 3-5 g/day; potassium, 3-4 g/day). […]

[5] = tested on: HMGCL; conditions: fasting (24 h) or ketogenic diet (2 days); Goldberg et al.; cited from earlier work
[6] = tested on: HMGCL; test: Plasma metabolites in Alb-Hmgcl (-/-) mice; format: in vivo, mouse; conditions: fasting or ketogenic diet
Procedure: as §1, §3

[7] = tested on: mouse tissue lysate proteins (brain, heart, quadriceps, liver); test: X-Phe photoprobe crosslinking in mouse tissue lysates, in-gel fluorescence; format: binding; conditions: 100 μM, UV crosslinking
Procedure: In vitro crosslinking studies of X-Phe photoprobe. Tissues were collected from wild type C57BL/6J and homogenized using a bead blaster in PBS. The protein homogenate was filtered through a 40 μm strainer to remove any un-homogenized tissue and the lysate diluted to 2 mg/ml. Tissue lysate was incubated with 100 μM of the photoprobe and incubated on ice for 10 minutes protected from light. Reactions were then put under UV for 1 min on a UV Stratalinker. A TAMRA click reaction was performed by adding the following reagents to the indicated final concentrations: […], 1 mM CuSO4, 1 mM TCEP (freshly prepared), 25 μM TAMRA-N3. Reactions were allowed to proceed for 1 hour at room temp, protected from light. Loading buffer was added to the reactions, boiled for 10 minutes and run down a protein gel. The gel was imaged prior to staining with a coomassie dye.

plasma BHB levels [1]: elevated by each of these conditions
plasma BHB in CNDP2-KO vs WT mice [2]: unchanged
plasma BHB after ketone ester drink [3]: dramatically elevated
elevation of plasma BHB on WFKD [4]: 5 fold
SMILES: CC(O)CC(=O)O (stereo not drawn) [BHB, beta-hydroxybutyrate, reference compound]
circulating BHB levels in Alb-Hmgcl (-/-) mice [5]: reductions in circulating BHB levels

plasma level in Alb-Hmgcl (-/-) mice [6]: reduced in Alb-Hmgcl (−/−) mice
plasma keto amino acids in CNDP2-KO vs wild type mice [2]: unaltered
SMILES: C[C@@H](O)CC(=O)N1CCC[C@H]1C(=O)O [Keto-Pro]

SMILES: C#CCCC(=O)N[C@@H](Cc1ccc(N=[N+]=[N-])cc1)C(=O)O [X-Phe photoprobe]
labelling of tissue proteins by photoprobe [7]: directly interacts with protein targets in a tissue-specific manner
